Patent US6482841B1, “Pyridyl compounds and pharmaceutical compositions containing them” (Cermol S.A., priority 1997, dated 2002)

What was measured:
[1] = tested on: isolated guinea-pig ventricular myocytes; experiment: Protection of isolated ventricular myocytes from hypercontracture obtained by incubation under N2 atmosphere; assay type: cell-based; conditions: 30 nM, with reference to vehicle-treated cells
Procedure: (§1) Isolated guinea-pig ventricular myocytes were obtained following the method described by Powell et al. (J. Physiol., 1980, 102: 131) as modified by Levi et al. (J. Physiol., 1990, 425:9P). Cell hypercontracture and death was obtained either by incubation under N2 atmosphere or by incubation with veratridine which induced important changes in the ionic homeostase of cardiomyocytes (Hiroko Hashizume et al., European Journal of Pharmacology, […], 271: 1-8). Results expressed as percentage of cells protected from hypercontracture i.e. maintaining its rod-shaped morphology with reference to vehicle-treated cells are given in the tables I and II hereafter.

[2] = tested on: isolated guinea-pig ventricular myocytes; experiment: Protection of isolated ventricular myocytes from hypercontracture obtained by incubation with veratridine; assay type: cell-based; conditions: 1 μM, with reference to vehicle-treated cells
Procedure: as §1

anaesthetised rats = experiment: In vivo cardioprotective effect: coronary occlusion and reperfusion in anaesthetised rats; design: species or system rat; conditions: 2 × 20 mg/kg orally (one day and one hour before the experiment)
From the text: Cardiac death and arrhythmias were induced by the coronary occlusion and reperfusion method in anaesthetised rats according to the method of Seyle et al. (Angiology, 1960, 11, 398-407) modified by Krzeminski T. (“proceedings of 7th Freiburg Focus of Biomeasurement”, Strasbourg, 16-19 September 1991) Cardiovascular and Respiratory in vivo Studies, Biomesstechnik, Verlag March GmbH, Germany) and according to the LAMBETH conventions (Walker M. J. A. et al., Cardiovasc Re., […], 22, 447-455). The products have been administered orally (one day and one hour before the experiment). They are given in percentage of protection against the mortality and the arrhythmias (ventricular fibrillations).

[3] = tested on: guinea-pig ventricular cardiomyocytes action potential; experiment: Action potential of ventricular cardiomyocytes in the presence of veratridine (patch clamp); assay type: cell-based
Procedure: (§2) In order to confirm the cardioprotection, the activity of one of the most interesting compound (example 31 according to the invention) was tested on guinea-pig ventricular cardiomyocytes action potential (AP) in the presence of veratridine or in anoxic condition. The action potential (AP) time courses of guinea-pig ventricular cardiomyocytes treated with veratridine or made anoxic by incubation under N2 atmosphere were measured (patch clamp technique) in absence and presence of the compound of example 31 according to the invention. […] In anoxic conditions, there is a shortening of cardiomyocyte action potential duration related mainly with an activation of K+-ATP dependent current.

[4] = tested on: guinea-pig ventricular cardiomyocytes action potential; experiment: Action potential of ventricular cardiomyocytes in anoxic condition under N2 atmosphere (patch clamp); assay type: cell-based; conditions: 100-300 nM
Procedure: as §2

SMILES	melting point [°C]	% Protection (cells protected from hypercontracture) [1] [%]	% Protection (cells protected from hypercontracture) [2] [%]	% PROTECTION AGAINST DEATH (anaesthetised rats) [%]	% PROTECTION AGAINST VENTRICULAR FIBRILLATIONS (anaesthetised rats) [%]	Prolongation of cardiomyocyte action potential duration induced by veratridine ([3]; 100-300 nM, veratridine)	Influence on the normal action potential ([3]; normal action potential)	Shortening of cardiomyocyte action potential duration in anoxic conditions (K+-ATP dependent current) [4]
Cc1nc(C)c(C(=O)OCC2CCCO2)c(-c2cccc([N+](=O)[O-])c2)c1C(=O)OCC1CCCO1.Cl (centres unmarked)	75 to 77	–	–	–	–	–	–	–
COC(=O)c1c(C)nc(C)c(C(=O)OCC2CCCO2)c1-c1cccc(NC(C)=O)c1.Cl (centres unmarked)	196 to 198	–	–	–	–	–	–	–
COC(=O)c1c(C)nc(C)c(C(=O)OCC2CCCO2)c1-c1cccc(O)c1.Cl (centres unmarked)	95 to 97	–	–	–	–	–	–	–
COC(=O)c1c(C)nc(C)c(C(=O)OCC2CCCO2)c1-c1cccc(F)c1 (centres unmarked) [Example 3, 2,6-Dimethyl-4-(3-fluorophenyl) pyridine-3,5-dicarboxylic acid 3-methyl ester 5-(tetrahydrofuran-2-ylmethyl) ester]	66 to 68	–	–	–	–	–	–	–
COC(=O)c1c(C)nc(C)c(C(=O)OCC2CCCO2)c1-c1ccccc1[N+](=O)[O-] (centres unmarked) [Example 12, 2,6-Dimethyl-4-(2-nitrophenyl) pyridine-3,5-dicarboxylic acid 3-methyl ester 5-(tetrahydrofuran-2-ylmethyl) ester]	–	80	57	100	100	–	–	–
COC(=O)c1c(C)nc(C)c(C(=O)OCC2CCC(=O)O2)c1-c1ccccc1[N+](=O)[O-] (centres unmarked) [Example 15, 2,6-Dimethyl-4-(2-nitrophenyl) pyridine-3,5-dicarboxylic acid 3-methyl ester 5-(5-oxotetrahydrofuran-2-ylmethyl)ester]	132 to 134	–	–	–	–	–	–	–
COCCOC(=O)c1c(C)nc(C)c(C(=O)OC(C)C)c1-c1cccc([N+](=O)[O-])c1 [Example 22, 2,6-Dimethyl-4-(3-nitrophenyl)-pyridine-3,5-dicarboxylic acid 3-isopropyl ester 5-(2-methoxyethyl) ester]	–	63	37.5	100	50	–	–	–
COC(=O)c1c(C)nc(C)c(C(=O)OCC(C)C)c1-c1ccccc1[N+](=O)[O-] [Example 23, 2,6-Dimethyl-4-(2-nitrophenyl)-pyridine-3,5-dicarboxylic acid 3-methyl ester 5-isobutyl ester]	–	50	41.3	100	75	–	–	–
CCOC(=O)c1c(C)nc(C)c(C(=O)OC)c1-c1cccc([N+](=O)[O-])c1 [Example 24, 2,6-Dimethyl-4-(3-nitrophenyl)pyridine-3,5-dicarboxylic acid 3-ethyl 5-methyl ester]	–	60	37.5	100	37.5	–	–	–
COC(=O)c1c(C)nc(C)c(C(=O)OC)c1-c1ccccc1[N+](=O)[O-] [Example 25, 2,6-Dimethyl-4-(2-nitrophenyl) pyridine-3,5-dicarboxylic acid dimethyl ester]	–	50	34	100	50	–	–	–
COC(=O)c1c(C)nc(C)c(C(=O)O)c1-c1ccccc1[N+](=O)[O-] [Example 31, 2,6-Dimethyl-4-(2-nitrophenyl) pyridine-3,5-dicarboxylic acid 3-methyl ester]	–	58	64	85.7	73.4	prevents	does not influence significantly	inhibited dose-dependently and strongly
